Activity calls are given as the source filed them.
Assays:
[1] = target: T1, Calpain-2 catalytic subunit (Sus scrofa, UniProt P43367); test: m-calpain protease blockers, concentration series – biochemical, fluorogenic peptide substrate, dose response (AID 1420); type: functional
T1 sequence (P43367 whole entry): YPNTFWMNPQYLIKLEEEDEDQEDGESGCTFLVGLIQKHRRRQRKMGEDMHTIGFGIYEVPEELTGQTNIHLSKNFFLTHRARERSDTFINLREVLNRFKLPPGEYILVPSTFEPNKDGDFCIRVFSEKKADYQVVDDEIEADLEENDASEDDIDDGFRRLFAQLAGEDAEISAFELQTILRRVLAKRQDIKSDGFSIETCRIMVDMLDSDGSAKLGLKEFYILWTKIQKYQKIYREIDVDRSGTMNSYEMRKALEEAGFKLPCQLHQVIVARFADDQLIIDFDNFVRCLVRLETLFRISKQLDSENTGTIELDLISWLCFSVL

[2] = blockers of bursicon-stimulated LGR2 cAMP reporter – cell-based, HEK293, CRE-luciferase reporter, cherry pick, set 2, dose response (AID 743343); type: functional;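 also: transfected cells were stimulated with diluted bursicon conditioned medium after compound addition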
[3] = blockade of melanocortin 4 receptor signaling – cell-based, plate reader, cherry pick, counter-screen for LGR2 antagonist project, dose response (AID 743444); type: functional;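 also: transfected HEK 293 cells stimulated with alpha-MSH peptide; potency of inhibitors of the alpha-MSH evoked signal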
[4] = A549 cell cytotoxicity, dose response, cytotoxicity control, plate reader, cherry-pick, antagonist series (AID 743412); type: functional, cell-based
[5] = target: Peroxisome proliferator-activated receptor gamma/Nuclear receptor coactivator 1 (Homo sapiens, UniProt P37231); type: functional;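 also: agonist potency as compounds enhance coactivator SRC-1 recruitment to PPARgamma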
[6] = target: Peroxisome proliferator-activated receptor gamma/Nuclear receptor coactivator 2 (Homo sapiens, UniProt P37231); type: functional;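 also: agonist potency for raising coactivator recruitment to the receptor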
[7] = target: Peroxisome proliferator-activated receptor gamma/Nuclear receptor coactivator 3 (Homo sapiens, UniProt P37231); type: functional;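 also: agonist potency for raising coactivator recruitment to the receptor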
[8] = target: T2, Mannose-6-phosphate isomerase (Homo sapiens, UniProt P34949); test: MPI inhibition at elevated mannose 6-phosphate – biochemical, fluorescence intensity, high mannose 6-phosphate, primary screen (AID 1220)
T2 sequence (P34949 whole entry): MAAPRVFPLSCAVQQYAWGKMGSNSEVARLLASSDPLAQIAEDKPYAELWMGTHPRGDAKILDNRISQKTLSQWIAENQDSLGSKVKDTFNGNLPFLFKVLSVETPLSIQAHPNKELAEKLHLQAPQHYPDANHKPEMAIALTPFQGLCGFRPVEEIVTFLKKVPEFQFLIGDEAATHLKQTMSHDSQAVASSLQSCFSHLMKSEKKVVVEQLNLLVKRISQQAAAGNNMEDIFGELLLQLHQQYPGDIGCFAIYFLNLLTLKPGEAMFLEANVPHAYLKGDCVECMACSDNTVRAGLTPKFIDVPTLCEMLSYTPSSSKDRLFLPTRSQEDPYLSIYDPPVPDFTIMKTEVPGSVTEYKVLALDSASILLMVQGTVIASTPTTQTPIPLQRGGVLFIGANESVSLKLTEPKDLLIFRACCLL

[9] = target: Induced myeloid leukemia cell differentiation protein Mcl-1 (Homo sapiens, UniProt Q07820); type: functional
[10] = microbe, parasite or virus in culture; type: functional; conditions: Mycobacterium tuberculosis
[11] = tested on: Streptococcus sp. 'group A'; test: Streptococcus pyogenes SK(-)GAS viability under kanamycin – luminescence, BacTiterGlo, confirmation, counter-screen for streptokinase expression inhibitor project, dose response (AID 1900); type: functional, organism-based
Streptococcus = test: GAS UMAA2166 growth inhibition – luminescence, BacTiterGlo, counter-screen for streptokinase expression inhibitor project, dose response (AID 1915); type: functional, organism-based;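 also: potency for reduction of bacterial viability or growth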
Streptokinase A = target: T3, Streptokinase A (Streptococcus pyogenes serotype M1, UniProt P10520); test: viability-normalized secreted streptokinase activity reduction – plasminogen activation absorbance, OD405, dose response (AID 1914); type: functional, Streptococcus pyogenes M1 GAS;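 also: secreted streptokinase activity via plasminogen activation per viability signal from cell pellet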
T3 sequence (P10520 whole entry): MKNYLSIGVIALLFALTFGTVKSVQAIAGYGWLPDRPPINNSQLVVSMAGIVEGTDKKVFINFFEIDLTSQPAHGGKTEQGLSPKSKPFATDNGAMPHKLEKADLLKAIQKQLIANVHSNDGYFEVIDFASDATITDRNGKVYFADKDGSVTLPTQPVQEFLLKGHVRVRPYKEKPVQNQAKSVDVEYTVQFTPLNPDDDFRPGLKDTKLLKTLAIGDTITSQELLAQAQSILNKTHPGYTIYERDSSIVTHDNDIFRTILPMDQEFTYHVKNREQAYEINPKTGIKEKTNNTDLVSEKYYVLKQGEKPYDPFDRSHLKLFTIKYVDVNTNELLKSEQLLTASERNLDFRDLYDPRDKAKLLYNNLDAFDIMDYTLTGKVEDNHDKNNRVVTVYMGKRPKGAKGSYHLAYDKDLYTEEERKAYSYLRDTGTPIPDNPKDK

[12] = target: T4, Microphthalmia-associated transcription factor (Homo sapiens, UniProt O75030); test: reducers of TRPM1 reporter luminescence, concentration series – cell-based, SK-MEL-5, cherry-picked, set 3, MITF inhibitor project, dose response (AID 493073); type: functional;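 also: SK-MEL-5 melanoma cells with luciferase driven by the MITF target TRPM1 promoter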
T4 sequence (O75030 whole entry): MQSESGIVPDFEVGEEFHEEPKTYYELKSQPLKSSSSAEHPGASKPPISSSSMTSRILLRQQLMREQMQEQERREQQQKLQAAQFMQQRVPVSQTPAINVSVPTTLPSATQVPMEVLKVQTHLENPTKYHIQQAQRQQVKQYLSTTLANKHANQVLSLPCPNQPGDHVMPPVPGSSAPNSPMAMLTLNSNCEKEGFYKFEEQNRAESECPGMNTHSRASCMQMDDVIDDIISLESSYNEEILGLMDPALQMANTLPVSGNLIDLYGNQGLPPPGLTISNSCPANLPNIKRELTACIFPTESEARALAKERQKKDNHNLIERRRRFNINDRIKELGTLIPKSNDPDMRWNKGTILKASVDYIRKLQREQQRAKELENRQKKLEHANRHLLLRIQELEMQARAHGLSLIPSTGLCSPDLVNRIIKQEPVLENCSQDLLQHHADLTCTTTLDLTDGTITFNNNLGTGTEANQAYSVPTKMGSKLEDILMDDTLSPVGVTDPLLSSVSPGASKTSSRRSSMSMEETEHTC

[13] = target: Heat shock protein HSP 90-alpha (Homo sapiens, UniProt P07900); type: functional, organism-based
INS1 = test: INS-1E survival protection against cytokine death – cell-based, luminescence, retest, dose response (AID 449756); type: functional; conditions: Rattus norvegicus;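 also: cell death triggered by IL-1 beta plus TNF-alpha plus IFN-gamma mixture; protective hits raise ATP signal compared with cytokine alone wells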
[14] = NIH3T3 cell viability loss – ATP luminescence, mouse fibroblasts, counter-screen, dose response (AID 2010); type: functional, cell-based;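 also: cells exposed to compound for about 90 hours before reading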
[15] = Trypanosoma cruzi growth suppression in host cells – NIH3T3 host cells, beta-gal luminescence, confirmation (AID 2044); type: functional, cell-based;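 also: intracellular parasites grown in NIH/3T3 mouse fibroblasts as host cells; luminescent beta-galactosidase reporter signal from transgenic T. cruzi replicating inside host cells; inhibitors lower the luminescence signal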
[16] = Luminescence Cell-Based Dose Retest to Confirm Inhibitors of Cancer Stem Cells. [Related pubchem assays (depositor defined):AID2717, AID2721]; type: functional; conditions: Homo sapiens
[17] = target: T5, High affinity choline transporter 1 (Homo sapiens, UniProt Q9GZV3); test: human choline transporter blockers, potency – cell-based, 5-point CRC, membrane potential dye, dose response (AID 504840); type: functional
T5 sequence (Q9GZV3 whole entry): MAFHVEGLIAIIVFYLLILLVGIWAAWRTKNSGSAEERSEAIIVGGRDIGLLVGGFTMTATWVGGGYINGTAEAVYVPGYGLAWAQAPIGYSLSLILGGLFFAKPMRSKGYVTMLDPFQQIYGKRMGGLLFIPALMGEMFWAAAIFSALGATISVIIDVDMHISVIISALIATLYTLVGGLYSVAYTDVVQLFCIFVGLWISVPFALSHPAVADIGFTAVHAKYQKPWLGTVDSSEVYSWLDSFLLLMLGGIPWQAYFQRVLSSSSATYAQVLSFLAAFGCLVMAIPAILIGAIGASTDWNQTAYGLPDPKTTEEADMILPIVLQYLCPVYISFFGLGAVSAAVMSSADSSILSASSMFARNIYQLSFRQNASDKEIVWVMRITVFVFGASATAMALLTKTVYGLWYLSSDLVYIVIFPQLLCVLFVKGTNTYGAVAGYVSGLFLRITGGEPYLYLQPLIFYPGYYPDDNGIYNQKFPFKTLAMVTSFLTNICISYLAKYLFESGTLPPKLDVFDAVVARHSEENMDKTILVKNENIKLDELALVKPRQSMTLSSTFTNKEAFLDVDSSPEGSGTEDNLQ

Cytochrome P450 3A4 = Cytochrome P450 3A4 (Homo sapiens, UniProt P08684);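 also: CYP3A4 tested as one member of a cytochrome P450 panel screen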
Protein RecA = target: T6, Protein RecA (Mycobacterium tuberculosis, UniProt P9WHJ3); test: Fluorescence Cell-Free Homogeneous Dose Retest to Identify Inhibitors of RecA-Intein Splicing Activity. [Related pubchem assays (depositor defined):AID2097, AID2223, AID489010, AID492950]; type: functional
T6 sequence (P9WHJ3 whole entry): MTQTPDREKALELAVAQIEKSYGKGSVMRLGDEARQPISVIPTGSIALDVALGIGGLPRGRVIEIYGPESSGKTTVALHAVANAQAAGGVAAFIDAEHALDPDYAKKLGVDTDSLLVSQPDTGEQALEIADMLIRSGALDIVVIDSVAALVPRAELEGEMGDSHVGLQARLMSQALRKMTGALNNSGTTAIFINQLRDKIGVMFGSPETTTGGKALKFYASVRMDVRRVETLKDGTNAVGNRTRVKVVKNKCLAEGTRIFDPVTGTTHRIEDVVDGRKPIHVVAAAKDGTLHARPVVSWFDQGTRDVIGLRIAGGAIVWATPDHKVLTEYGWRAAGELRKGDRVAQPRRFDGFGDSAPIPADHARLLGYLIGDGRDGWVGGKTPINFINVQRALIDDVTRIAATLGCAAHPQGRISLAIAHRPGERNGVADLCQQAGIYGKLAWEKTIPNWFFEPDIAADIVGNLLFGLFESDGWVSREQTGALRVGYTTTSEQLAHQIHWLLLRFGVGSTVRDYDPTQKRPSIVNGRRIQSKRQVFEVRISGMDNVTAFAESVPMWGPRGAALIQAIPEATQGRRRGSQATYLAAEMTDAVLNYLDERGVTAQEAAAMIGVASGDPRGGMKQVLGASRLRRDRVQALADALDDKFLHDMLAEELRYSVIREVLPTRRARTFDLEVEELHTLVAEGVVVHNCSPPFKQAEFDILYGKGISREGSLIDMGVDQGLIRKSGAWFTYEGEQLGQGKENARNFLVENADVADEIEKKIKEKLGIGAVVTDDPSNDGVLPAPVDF

Induced myeloid leukemia cell differentiation protein Mcl-1, sequence (Q07820 whole entry): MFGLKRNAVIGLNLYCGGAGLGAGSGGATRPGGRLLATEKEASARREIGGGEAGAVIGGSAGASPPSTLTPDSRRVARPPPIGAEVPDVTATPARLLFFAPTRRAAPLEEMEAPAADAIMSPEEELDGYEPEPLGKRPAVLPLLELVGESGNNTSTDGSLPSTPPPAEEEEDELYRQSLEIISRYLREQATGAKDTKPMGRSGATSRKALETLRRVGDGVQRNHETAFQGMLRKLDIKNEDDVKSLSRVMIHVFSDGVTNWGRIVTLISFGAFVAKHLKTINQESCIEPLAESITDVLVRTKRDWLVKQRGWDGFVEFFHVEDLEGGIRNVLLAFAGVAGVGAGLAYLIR
Peroxisome proliferator-activated receptor gamma/Nuclear receptor coactivator 3, sequence (P37231 whole entry): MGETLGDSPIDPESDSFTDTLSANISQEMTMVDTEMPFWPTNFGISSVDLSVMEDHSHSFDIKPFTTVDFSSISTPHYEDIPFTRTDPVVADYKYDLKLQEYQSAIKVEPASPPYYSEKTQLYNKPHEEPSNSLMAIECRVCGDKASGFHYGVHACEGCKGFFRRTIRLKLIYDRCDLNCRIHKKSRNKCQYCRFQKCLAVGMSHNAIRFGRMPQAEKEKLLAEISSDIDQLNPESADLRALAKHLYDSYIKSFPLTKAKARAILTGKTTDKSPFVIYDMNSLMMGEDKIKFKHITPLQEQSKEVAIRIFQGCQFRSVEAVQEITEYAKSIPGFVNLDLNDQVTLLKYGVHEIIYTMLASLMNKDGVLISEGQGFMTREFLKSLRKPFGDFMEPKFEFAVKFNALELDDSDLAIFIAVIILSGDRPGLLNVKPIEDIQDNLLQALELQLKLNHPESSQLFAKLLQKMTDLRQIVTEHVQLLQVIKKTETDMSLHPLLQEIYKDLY
Peroxisome proliferator-activated receptor gamma/Nuclear receptor coactivator 3, sequence (Q9Y6Q9 whole entry, further chain): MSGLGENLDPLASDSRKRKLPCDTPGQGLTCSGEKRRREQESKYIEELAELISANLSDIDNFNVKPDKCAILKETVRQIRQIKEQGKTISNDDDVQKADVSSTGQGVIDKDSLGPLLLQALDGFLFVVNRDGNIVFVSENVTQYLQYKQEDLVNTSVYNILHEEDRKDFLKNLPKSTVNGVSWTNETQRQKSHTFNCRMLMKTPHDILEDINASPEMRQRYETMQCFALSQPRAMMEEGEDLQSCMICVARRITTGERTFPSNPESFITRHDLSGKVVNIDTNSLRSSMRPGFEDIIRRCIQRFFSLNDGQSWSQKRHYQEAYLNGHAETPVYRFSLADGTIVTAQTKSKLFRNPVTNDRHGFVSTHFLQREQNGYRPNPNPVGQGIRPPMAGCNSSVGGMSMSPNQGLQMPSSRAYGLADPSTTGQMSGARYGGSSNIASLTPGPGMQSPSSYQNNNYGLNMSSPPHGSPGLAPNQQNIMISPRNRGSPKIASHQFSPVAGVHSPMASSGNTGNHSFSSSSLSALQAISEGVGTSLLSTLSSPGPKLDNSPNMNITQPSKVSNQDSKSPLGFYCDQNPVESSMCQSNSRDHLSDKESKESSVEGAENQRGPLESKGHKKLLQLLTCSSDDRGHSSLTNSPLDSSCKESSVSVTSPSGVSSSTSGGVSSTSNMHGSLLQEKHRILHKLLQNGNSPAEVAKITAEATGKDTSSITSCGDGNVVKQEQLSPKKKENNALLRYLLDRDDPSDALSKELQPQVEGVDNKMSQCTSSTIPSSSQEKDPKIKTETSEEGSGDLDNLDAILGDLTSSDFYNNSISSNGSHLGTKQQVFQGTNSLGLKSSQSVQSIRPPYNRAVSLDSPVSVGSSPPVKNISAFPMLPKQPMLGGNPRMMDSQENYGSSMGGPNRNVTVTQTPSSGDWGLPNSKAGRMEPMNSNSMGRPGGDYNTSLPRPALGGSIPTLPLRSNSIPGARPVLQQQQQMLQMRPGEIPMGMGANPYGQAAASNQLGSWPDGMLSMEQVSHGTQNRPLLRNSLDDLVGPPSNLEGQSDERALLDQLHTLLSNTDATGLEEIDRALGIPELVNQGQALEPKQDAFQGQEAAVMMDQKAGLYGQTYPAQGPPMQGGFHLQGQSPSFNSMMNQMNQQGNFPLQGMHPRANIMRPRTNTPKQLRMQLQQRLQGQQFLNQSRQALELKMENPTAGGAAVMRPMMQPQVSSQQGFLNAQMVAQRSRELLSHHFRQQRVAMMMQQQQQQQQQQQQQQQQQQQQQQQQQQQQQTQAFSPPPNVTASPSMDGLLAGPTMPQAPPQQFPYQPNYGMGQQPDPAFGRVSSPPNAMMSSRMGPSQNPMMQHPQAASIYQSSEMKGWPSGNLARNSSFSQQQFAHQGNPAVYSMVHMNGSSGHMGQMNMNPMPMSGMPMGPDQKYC
Peroxisome proliferator-activated receptor gamma/Nuclear receptor coactivator 2, sequence (P37231 whole entry): as the sequence (P37231 whole entry) above
Peroxisome proliferator-activated receptor gamma/Nuclear receptor coactivator 2, sequence (Q15596 whole entry, further chain): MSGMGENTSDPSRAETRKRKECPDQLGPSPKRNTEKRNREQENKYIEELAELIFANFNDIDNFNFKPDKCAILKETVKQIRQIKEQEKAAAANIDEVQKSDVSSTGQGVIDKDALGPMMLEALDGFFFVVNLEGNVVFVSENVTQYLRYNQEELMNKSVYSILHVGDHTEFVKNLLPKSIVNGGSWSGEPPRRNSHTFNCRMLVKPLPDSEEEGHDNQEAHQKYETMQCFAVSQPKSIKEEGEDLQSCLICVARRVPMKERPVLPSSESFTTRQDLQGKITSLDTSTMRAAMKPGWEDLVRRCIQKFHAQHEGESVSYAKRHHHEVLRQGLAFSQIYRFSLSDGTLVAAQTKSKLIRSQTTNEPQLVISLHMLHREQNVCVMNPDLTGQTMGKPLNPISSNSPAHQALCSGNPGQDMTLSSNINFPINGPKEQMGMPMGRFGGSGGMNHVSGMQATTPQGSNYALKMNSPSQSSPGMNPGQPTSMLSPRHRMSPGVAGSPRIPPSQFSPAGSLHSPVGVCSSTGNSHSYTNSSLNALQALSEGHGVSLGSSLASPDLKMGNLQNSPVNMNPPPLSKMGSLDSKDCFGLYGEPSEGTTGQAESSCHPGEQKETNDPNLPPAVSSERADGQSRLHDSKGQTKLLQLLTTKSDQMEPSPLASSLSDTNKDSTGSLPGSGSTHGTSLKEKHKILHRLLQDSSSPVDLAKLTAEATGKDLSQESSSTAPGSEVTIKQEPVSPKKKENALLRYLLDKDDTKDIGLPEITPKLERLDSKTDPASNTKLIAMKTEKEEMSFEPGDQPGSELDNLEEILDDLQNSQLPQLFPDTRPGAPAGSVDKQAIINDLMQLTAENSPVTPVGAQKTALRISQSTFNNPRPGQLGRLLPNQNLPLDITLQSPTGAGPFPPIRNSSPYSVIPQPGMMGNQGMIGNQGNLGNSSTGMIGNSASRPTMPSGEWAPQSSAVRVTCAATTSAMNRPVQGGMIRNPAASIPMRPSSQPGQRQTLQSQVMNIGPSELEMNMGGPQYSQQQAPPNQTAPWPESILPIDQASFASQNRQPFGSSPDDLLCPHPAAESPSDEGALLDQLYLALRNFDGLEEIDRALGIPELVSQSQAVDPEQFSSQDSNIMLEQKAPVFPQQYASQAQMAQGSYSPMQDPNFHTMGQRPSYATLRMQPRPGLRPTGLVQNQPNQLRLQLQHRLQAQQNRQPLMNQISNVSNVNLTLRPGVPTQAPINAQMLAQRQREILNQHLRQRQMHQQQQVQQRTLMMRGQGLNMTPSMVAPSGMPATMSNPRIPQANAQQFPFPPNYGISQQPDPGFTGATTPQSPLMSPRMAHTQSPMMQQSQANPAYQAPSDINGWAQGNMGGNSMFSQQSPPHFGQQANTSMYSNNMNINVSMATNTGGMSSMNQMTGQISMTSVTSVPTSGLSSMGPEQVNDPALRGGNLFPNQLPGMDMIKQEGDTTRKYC
Cytochrome P450 3A4, sequence (P08684 whole entry): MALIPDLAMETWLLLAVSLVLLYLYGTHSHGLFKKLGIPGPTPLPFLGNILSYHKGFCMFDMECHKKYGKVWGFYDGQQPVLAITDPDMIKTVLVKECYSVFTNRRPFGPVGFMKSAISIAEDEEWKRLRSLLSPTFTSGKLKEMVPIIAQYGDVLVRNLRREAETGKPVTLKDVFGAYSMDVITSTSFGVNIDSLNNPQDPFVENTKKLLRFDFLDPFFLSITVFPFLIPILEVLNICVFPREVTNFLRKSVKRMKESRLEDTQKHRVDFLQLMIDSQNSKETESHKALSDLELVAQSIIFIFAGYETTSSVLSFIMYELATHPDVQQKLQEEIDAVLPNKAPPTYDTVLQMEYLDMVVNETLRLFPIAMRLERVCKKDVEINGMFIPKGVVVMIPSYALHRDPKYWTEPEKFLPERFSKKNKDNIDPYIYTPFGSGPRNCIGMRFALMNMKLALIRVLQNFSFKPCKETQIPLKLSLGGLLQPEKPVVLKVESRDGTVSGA

CC1CCCCN1Cc1cnc(Cl)s1 (centres undefined)
IC50 [1]: > 50 µM (not active)

Cc1ccc(S(=O)(=O)N(C)C[C@H]2Oc3c(cccc3N(C)C)C(=O)N([C@@H](C)CO)C[C@@H]2C)cc1
AC50 [2]: 0.726 µM (active)
AC50 [3]: 0.341 µM (active)
AC50 [4]: > 52 µM (inactive)

Cc1ccc(C(=O)Nc2nnc(-c3cccs3)s2)cc1C
EC50 [5]: 9.78 µM (active)
EC50 [6]: 9.65 µM (active)
EC50 [7]: > 79.4 µM (not active)

CCOC(=O)c1c(N)sc(N)c1C(=O)OCC
IC50 [8]: > 50 µM (not active)

O=C(NC(=S)NCC1CCCO1)c1ccc(Br)o1 (centres undefined)
IC50 [1]: 1.43 µM (not active)

O=c1cc(-c2ccccc2)oc2cc(OCc3ccccc3)cc(O)c12
IC50 [1]: > 50 µM (not active)

CCCCOc1ccc(C(=O)N/C(=C/C=C/c2ccccc2)C(=O)O)cc1
EC50 [5]: > 79.4 µM (not active)
EC50 [6]: > 79.4 µM (not active)
EC50 [7]: > 79.4 µM (not active)

COc1ccc(Cl)c(N2CCN(CCCNC(=O)Nc3ccc(C)cc3)CC2)c1
IC50 [9]: 6.56 µM (active)

CCCCNC(=S)N/N=C1\CCCCc2ccccc21
IC50 [1]: 11.2 µM (not active)

N#C[C@@H]1[C@H](c2ccc(C#CC3CCCCC3)cc2)[C@@H](CO)N1C(=O)c1cccc(F)c1
AC50 [3]: 36.1 µM (active)
AC50 [4]: 35.8 µM (active)

COc1ccc(C(CC(=O)c2ccccc2)S(=O)(=O)c2ccc(C)cc2)cc1 (centres undefined)
CC50 [10]: > 40 µM (active)

Oc1c(Cl)cc(Cl)cc1C(C#Cc1ccccc1)N1CCOCC1 (centres undefined)
EC50 [11]: 16.6 µM (active)
IC50 [1]: 12.8 µM (not active)
EC50 (Streptococcus): 48.9 µM (active)
EC50 (Streptokinase A): 26.8 µM (active)

CCOc1ccc(-c2ccc(/C=C3/C(=N)N4C=CSC4=NC3=O)o2)c([N+](=O)[O-])c1
IC50 [9]: 1.48 µM (active)

COc1ccc(C(=O)N2c3ccccc3CC2C)cc1OC (centres undefined)
IC50 [9]: 0.799 µM (not active)

c1ccc(C2=Nn3c(nnc3-c3ccco3)SC2)cc1
IC50 [8]: > 50 µM (not active)

Cc1ccc(NS(=O)(=O)c2ccc(OCC(=O)NCc3cccnc3)cc2)cc1
EC50 [5]: > 79.4 µM (not active)
EC50 [6]: > 79.4 µM (not active)
EC50 [7]: > 79.4 µM (not active)

O=C(CSc1nnnn1-c1ccc(O)cc1)Nc1cccc(S(=O)(=O)N2CCCC2)c1
AC50 [12]: 50.2 µM (active)

CCCC(=O)NC(c1ccc(OC)c(OC)c1)c1cc(Cl)c2cccnc2c1O (centres undefined)
AC50 [13]: 12.4 µM (active)
AC50 [12]: 9.06 µM (active)
AC50 (INS1): 1.69 µM (active)
EC50 [14]: < 6 µM (inconclusive)
EC50 [15]: 1.2 µM (active)

O=C(Nc1cccc(-c2ccc(N3CCCCC3)nn2)c1)c1ccc(Br)o1
CC50 [10]: > 40 µM (active)

O=C(CCc1ccc(Oc2cc([N+](=O)[O-])cc([N+](=O)[O-])c2)cc1)N1CCCCCC1
AC50 [16]: 4.73 µM (active)
CC50 [10]: > 40 µM (active)
EC50 [14]: > 30 µM (not active)
EC50 [15]: 0.187 µM (active)

C=CCn1c(=O)c2ccccc2n2c(SCc3nc(N)nc(Nc4ccccc4C)n3)nnc12
EC50 [5]: > 79.4 µM (not active)
EC50 [6]: > 79.4 µM (not active)
EC50 [7]: > 79.4 µM (not active)

c1ccc(-c2c3c4ccccc4nc-3[nH]c3ccccc23)cc1
AC50 [16]: 2.03 µM (active)
CC50 [10]: > 40 µM (active)

O=C(NNc1nc(-c2ccccc2)cs1)c1ccccc1
IC50 [17]: 14.5 µM (active)
CC50 [10]: > 40 µM (active)

CN1c2ccccc2C(C)(C)C12C=Nc1c(cc(N3CCOCC3)c3ccccc13)O2 (centres undefined)
AC50 (Cytochrome P450 3A4): 4.47 µM (inconclusive)
EC50 (Protein RecA): 50.5 µM (inconclusive)
IC50 [8]: > 50 µM (not active)

Reference: ChEMBL document CHEMBL1201862, “PubChem BioAssay data set” (2004)
